A value given as a limit tells only on which side of the number the result lay.

The test system of the first test is YAP/TAZ-TEAD transcription. In words: Reporter gene assay for measuring the inhibition of YAP/TAZ-TEAD transcription (TEAD-responsive element luciferase reporter in Hek293T cells). Conditions: Hek293T cells transiently transfected with TEAD-responsive element luciferase reporter, 24 hours incubation. It is filed as cell-based. How it is done: Hek293T cells are cultured in DMEM supplemented with 10% fetal bovine serum, Sodium pyruvate, Sodium bicarbonate, L-glutamine. The cells are harvested and transiently transfected with TEAD-responsive element luciferase reporter. Transfected cells are plated in 384-wells plate containing pre-diluted compounds. After 24 hours incubation at 37° C./5%CO2, assay plates were cooled down to RT and levelled to an equal volume per well, prior to the addition of 25 uL luciferase substrate SteadyLite (Perkin Elmer)/well. The plate was shaken for 10 min at 600 rpm, centrifuged for 1min at 500 rpm and measured with an Envision reader (PerkinElmer). The amount of relative light units produced by the TEAD reporter is used to calculated percent of inhibition.
The percent of reporter inhibition was calculated in the presence of a positive control inhibitor (100% inhibition) versus a condition with the presence of the vehicle basal activity of the reporter (0% inhibition). The ability of a test compound to inhibit this activity was determined as:
Percentage inhibition=[1-((RLU determined in the presence of vehicle—RLU determined for sample with test compound present) divided by (RLU determined in the presence of vehicle — RLU determined for sample with positive control inhibitor))] * 100
The activities of the example compounds tested are depicted in the table below. The activity ranges A, B and C refer to EC50 values in the reporter gene assay as described as follows: “A”: EC50 <1 μM; “B” : 1 μM≤EC50≤20 μM and “C” : EC50>20 μM, NT=not tested.
`C=CC(=O)NCC1CN(c2ccc(-c3ccccc3)cc2)c2ccnn2C1` (single isomer, unassigned) [Cpd. No. 017-En2, (R)- or (S)-N-((4-([1,1′-biphenyl]-4-yl)-4,5,6,7-tetrahydropyrazolo[1,5-a]pyrimidin-6-yl)methyl)acrylamide] had a 50% effective concentration (EC50) of less than 1000 nM.

On to `CCC(=O)NCC1CN(c2ccc(C(F)(F)F)cc2)c2ccnn2C1` (single isomer, unassigned) [Cpd. No. 028-En2, (R)- or (S)-N-((4-(4-(trifluoromethyl)phenyl)-4,5,6,7-tetrahydropyrazolo[1,5-a]pyrimidin-6-yl)methyl)propionamide], for which the concentration for a half-maximal effect (EC50) was less than 1000 nM. `C=CC(=O)NCC1CN(c2cccc(F)c2)c2ccnn2C1` (single isomer, unassigned) [Cpd. No. 004-En1, (R)- or (S)-N-((4-(3-fluorophenyl)-4,5,6,7-tetrahydropyrazolo[1,5-a]pyrimidin-6-yl)methyl)acrylamide]: the EC50 is 1000 to 20000 nM.

For `C=CC(=O)NCC1CN(c2ccc(C(F)(F)F)cc2)c2cc(C)nn2C1` (single isomer, unassigned) [Cpd. No. 029-En2, (R)- or (S)-N-((2-methyl-4-(4-(trifluoromethyl)phenyl)-4,5,6,7-tetrahydropyrazolo[1,5-a]pyrimidin-6-yl)methyl)acrylamide], the EC50 was less than 1000 nM. The same measure, in the same setting: as for `C=CC(=O)NCC1CN(C(=O)C2CCCCC2)c2ccnn2C1` (single isomer, unassigned) [Cpd. No. 046-En2, (R)- or (S)-N-((4-(cyclohexanecarbonyl)-4,5,6,7-tetrahydropyrazolo[1,5-a]pyrimidin-6-yl)methyl)acrylamide], the figure is 1000 to 20000 nM; as for `C=CC(=O)NCC1CN(c2ccc(OC(F)(F)F)cc2)c2cc(C)nn2C1` (single isomer, unassigned) [Cpd. No. 030-En1, (R)- or (S)-N-((2-methyl-4-(4-(trifluoromethoxy)phenyl)-4,5,6,7-tetrahydropyrazolo[1,5-a]pyrimidin-6-yl)methyl)acrylamide], less than 1000 nM; as for `C=CC(=O)NCC1CN(c2ccc(C(F)(F)F)cc2)c2cnc(C(F)(F)F)n2C1` (single isomer, unassigned) [Cpd. No. 094-En2, (R)- or (S)-N-((6-(trifluoromethyl)-1-(4-(trifluoromethyl)phenyl)-1,2,3,4-tetrahydroimidazo[1,5-a]pyrimidin-3-yl)methyl)acrylamide], less than 1000 nM. The same measure, in the same setting: as for `CN1CCC2(CN(c3ccc(C(F)(F)F)cc3)c3ccnn3C2)C1=O` (single isomer, unassigned) [Cpd. No. 090-En2, (R)- or (S)-1′-methyl-4-(4-(trifluoromethyl)phenyl)-4,5-dihydro-7H-spiro[pyrazolo[1,5-a]pyrimidine-6,3′-pyrrolidin]-2′-one], the figure is greater than 20000 nM; as for `C=CC(=O)NCC1CN(c2ccc(C(F)(F)F)c(F)c2)c2ccnn2C1` (single isomer, unassigned) [Cpd. No. 015-En1, (R)- or (S)-N-((4-(3-fluoro-4-(trifluoromethyl)phenyl)-4,5,6,7-tetrahydropyrazolo[1,5-a]pyrimidin-6-yl)methyl)acrylamide], less than 1000 nM. On the same count and under the same terms, as for `C=CC(=O)NCC1CN(c2ccc(C(F)(F)F)cc2)c2cc(CC3CC3)nn2C1` (single isomer, unassigned) [Cpd. No. 032-En2, (R)- or (S)-N-((2-(cyclopropylmethyl)-4-(4-(trifluoromethyl)phenyl)-4,5,6,7-tetrahydropyrazolo[1,5-a]pyrimidin-6-yl)methyl)acrylamide], the figure is less than 1000 nM.

`C=CC(=O)NCC1CN(c2ccc(F)cc2)c2ccnn2C1` (single isomer, unassigned) [Cpd. No. 006-En1, (R)- or (S)-N-((4-(4-fluorophenyl)-4,5,6,7-tetrahydropyrazolo[1,5-a]pyrimidin-6-yl)methyl)acrylamide] gave an EC50 of 1000 to 20000 nM. In turn, `CCC(=O)NCC1CN(c2ccc(C(F)(F)F)cc2)c2ccnn2C1` (stereo not shown) [Cpd. No. 028, N-((4-(4-(trifluoromethyl)phenyl)-4,5,6,7-tetrahydropyrazolo[1,5-a]pyrimidin-6-yl)methyl)propionamide] had a concentration for a half-maximal effect (EC50) of less than 1000 nM. `C=CC(=O)NCC1CN(c2ccc(C(F)(F)F)cc2)c2ccnn2C1` (single isomer, unassigned) [Cpd. No. 002-En1, (R)- or (S)-N-((4-(4-(trifluoromethyl)phenyl)-4,5,6,7-tetrahydropyrazolo[1,5-a]pyrimidin-6-yl)methyl)acrylamide] came in with an EC50 of less than 1000 nM.

On to `C=CC(=O)NCC1CN(c2ccc(-c3ccccc3)cc2)c2ccnn2C1` (single isomer, unassigned) [Cpd. No. 017-En1, (R)- or (S)-N-((4-([1,1′-biphenyl]-4-yl)-4,5,6,7-tetrahydropyrazolo[1,5-a]pyrimidin-6-yl)methyl)acrylamide], for which the EC50 was greater than 20000 nM. In turn, `C=CC(=O)NC1CN(c2ccc(C(F)(F)F)cc2)c2ccnn2C1` (single isomer, unassigned) [Cpd. No. 061-En1, (R)- or (S)-N-(4-(4-(trifluoromethyl)phenyl)-4,5,6,7-tetrahydropyrazolo[1,5-a]pyrimidin-6-yl)acrylamide] displayed an EC50 of less than 1000 nM. Still for that read-out and setting: as for `C=CC(=O)NCC1CN(S(=O)(=O)c2ccc(C(F)(F)F)cc2)c2ccnn2C1` (stereo not shown) [Cpd. No. 045, N-((4-((4-(trifluoromethyl)phenyl)sulfonyl)-4,5,6,7-tetrahydropyrazolo[1,5-a]pyrimidin-6-yl)methyl)acrylamide], the figure is greater than 20000 nM; as for `C=CC(=O)NCC1CN(c2ccc(C(F)(F)F)cc2)c2cnc(C(F)(F)F)n2C1` (single isomer, unassigned) [Cpd. No. 094-En1, (R)- or (S)-N-((6-(trifluoromethyl)-1-(4-(trifluoromethyl)phenyl)-1,2,3,4-tetrahydroimidazo[1,5-a]pyrimidin-3-yl)methyl)acrylamide], less than 1000 nM.

Still in this test, the particulars now being: Homo sapiens, HEK-293T, 24 h, Hek293T cells transiently transfected with TEAD-responsive element luciferase reporter, 24 hours incubation.
`CS(=O)(=O)NC(=O)C1CN(c2ccc(C(F)(F)F)cc2)c2ccnn2C1` (stereo not shown) [Cpd. No. 093, N-(methylsulfonyl)-4-(4-(trifluoromethyl)phenyl)-4,5,6,7-tetrahydropyrazolo[1,5-a]pyrimidine-6-carboxamide] returned a concentration giving a half-maximal response (EC50) greater than 20000 nM. The compound `C=CC(=O)NCC1CN(c2ccc(F)cc2)c2ccnn2C1` (stereo not shown) [Cpd. No. 006, N-((4-(4-fluorophenyl)-4,5,6,7-tetrahydropyrazolo[1,5-a]pyrimidin-6-yl)methyl)acrylamide] displayed an EC50 of less than 1000 nM. On the same count and under the same terms, as for `C#Cc1ccc(N2CC(CNC(=O)C=C)Cn3nccc32)cc1` (stereo not shown) [Cpd. No. 036, N-((4-(4-ethynylphenyl)-4,5,6,7-tetrahydropyrazolo[1,5-a]pyrimidin-6-yl)methyl)acrylamide], the figure is less than 1000 nM; as for `C=CC(=O)NCC1CN(C(=O)c2ccccc2)c2ccnn2C1` (stereo not shown) [Cpd. No. 047, N-((4-benzoyl-4,5,6,7-tetrahydropyrazolo[1,5-a]pyrimidin-6-yl)methyl)acrylamide], greater than 20000 nM; as for `C[C@H](NC(=O)NCC1CN(c2ccc(C(F)(F)F)cc2)c2ccnn2C1)c1ccccn1` (stereo partly drawn) [Cpd. No. 091, 1-((S)-1-(pyridin-2-yl)ethyl)-3-((4-(4-(trifluoromethyl)phenyl)-4,5,6,7-tetrahydropyrazolo[1,5-a]pyrimidin-6-yl)methyl)urea], greater than 20000 nM. The same measure, in the same setting: as for `C#CCNCC1CN(c2ccc(C(F)(F)F)cc2)c2ccnn2C1` (stereo not shown) [Cpd. No. 044, N-((4-(4-(trifluoromethyl)phenyl)-4,5,6,7-tetrahydropyrazolo[1,5-a]pyrimidin-6-yl)methyl)prop-2-yn-1-amine], the figure is greater than 20000 nM; as for `CN1CCC2(CN(c3ccc(C(F)(F)F)cc3)c3ccnn3C2)C1=O` (single isomer, unassigned) [Cpd. No. 090-En1, (R)- or (S)-1′-methyl-4-(4-(trifluoromethyl)phenyl)-4,5-dihydro-7H-spiro[pyrazolo[1,5-a]pyrimidine-6,3′-pyrrolidin]-2′-one], greater than 20000 nM. Same read-out and setting: as for `C=CC(=O)NCC1CN(c2cccc(C(F)(F)F)c2)c2ccnn2C1` (stereo not shown) [Cpd. No. 003, N-((4-(3-(trifluoromethyl)phenyl)-4,5,6,7-tetrahydropyrazolo[1,5-a]pyrimidin-6-yl)methyl)acrylamide], the figure is less than 1000 nM; as for `C=CC(=O)NCC1CN(C2CCCCC2)c2ccnn2C1` (stereo not shown) [Cpd. No. 037, N-((4-cyclohexyl-4,5,6,7-tetrahydropyrazolo[1,5-a]pyrimidin-6-yl)methyl)acrylamide], less than 1000 nM. Compound `C=CC(=O)NCC1CN(c2ccc(C(F)F)cc2)c2ccnn2C1` (stereo not shown) [Cpd. No. 009, N-((4-(4-(difluoromethyl)phenyl)-4,5,6,7-tetrahydropyrazolo[1,5-a]pyrimidin-6-yl)methyl)acrylamide] gave an EC50 of less than 1000 nM.

`C=CC(=O)NCC1CN(CC2CCCCC2)c2ccnn2C1` (stereo not shown) [Cpd. No. 055, N-((4-(cyclohexylmethyl)-4,5,6,7-tetrahydropyrazolo[1,5-a]pyrimidin-6-yl)-methyl)acrylamide] had a 50% effective concentration (EC50) of less than 1000 nM.

Source of the values: patent publication US20230279016A1, “Tetrahydropyrazolopyrimidines and Related Analogs for Inhibiting YAP/TAZ-TEAD” (THE KATHOLIEKE UNIVERSITEIT LEUVEN, priority 2021, published 2023).
